Experimental data taken from patent US20020115661A1, “Method for treating chronic obstructive pulmonary disease” (priority 2000, published 2002).
Read-outs that look alike come from different tables or passages of the source.

Columns and labels:
dog ETB receptors = target: T1, dog ETB receptors (Canis lupus familiaris, UniProt P56497); assay: [125I]ET-3 binding, membranes from dog cerebellum
T1 construct: from tissue
T1 sequence (P56497 27-442): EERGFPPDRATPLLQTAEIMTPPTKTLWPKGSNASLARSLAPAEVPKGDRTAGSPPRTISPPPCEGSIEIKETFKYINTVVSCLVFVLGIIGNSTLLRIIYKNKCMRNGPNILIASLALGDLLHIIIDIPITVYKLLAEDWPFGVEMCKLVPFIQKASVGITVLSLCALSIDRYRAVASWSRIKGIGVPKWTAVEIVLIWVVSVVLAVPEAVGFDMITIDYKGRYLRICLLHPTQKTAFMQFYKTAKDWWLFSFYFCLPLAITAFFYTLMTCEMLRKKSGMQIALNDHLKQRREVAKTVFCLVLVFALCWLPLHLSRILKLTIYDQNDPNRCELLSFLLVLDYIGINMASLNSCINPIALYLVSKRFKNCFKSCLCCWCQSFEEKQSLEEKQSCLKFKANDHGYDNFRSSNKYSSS
Description: (§1) Relative binding activities are given below in TABLE 3.

[1] = Distribution, plasma protein binding and excretion; type: in vivo
healthy subjects = assay: Tolerance and safety in Phase 1 studies in healthy subjects; type: in vivo, human
[2] = PO bioavailability in monkeys; details: monkey, in vivo
rat ETB receptors = target: T2, rat ETB receptors (Rattus norvegicus, UniProt P21451); assay: [125I]ET-3 binding, membranes from rat cerebellum
T2 construct: from tissue
T2 sequence (P21451 27-442): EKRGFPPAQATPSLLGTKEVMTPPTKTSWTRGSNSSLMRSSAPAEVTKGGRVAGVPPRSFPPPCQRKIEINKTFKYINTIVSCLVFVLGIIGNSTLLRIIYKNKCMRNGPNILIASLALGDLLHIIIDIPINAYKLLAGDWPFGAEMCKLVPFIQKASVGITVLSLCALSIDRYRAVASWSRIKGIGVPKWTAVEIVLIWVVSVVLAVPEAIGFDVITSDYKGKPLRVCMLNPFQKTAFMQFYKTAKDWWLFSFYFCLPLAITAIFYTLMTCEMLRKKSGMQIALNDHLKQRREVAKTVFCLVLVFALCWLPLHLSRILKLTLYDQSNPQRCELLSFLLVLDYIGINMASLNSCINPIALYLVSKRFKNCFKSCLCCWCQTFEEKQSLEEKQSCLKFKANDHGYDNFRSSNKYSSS
Description: as §1

[3] = CI-1034 plasma concentration after oral dose in rats; type: in vivo; details: rat, 24 hours after 30 mg/kg oral dose
Description: Vehicle-treated rats responded to the bET-1 challenge with peak increases in mean arterial pressure (MAP) of 58±2 mm Hg (N=7); baseline MAP was 82±5 mm Hg.

[4] = Oral rising single-dose pharmacokinetic study in healthy subjects; type: in vivo, human

Compound: CCc1cc(C2=C(C(=O)[O-])N(c3ccccc3C(F)(F)F)S(=O)(=O)c3ccccc32)cc2c1OCO2.[K+] [CI-1034, 4-(7-Ethyl-1,3-benzodioxol-5-yl)-2-[2-(trifluoromethyl)phenyl]-2H-1 ,2-benzothiazine-3-carboxylic acid 1,1-dioxide monopotassium salt]
- IC50 (dog ETB receptors): 329 nM
- tissue distribution of radioequivalents ([1]; highest concentrations in liver and blood): not widely distributed
- plasma protein binding ([1]; in vivo): highly bound
- QTc intervals (healthy subjects): No prolonged QTc intervals
- most frequent adverse events (healthy subjects): headache, somnolence, nausea, and dyspepsia
- serious adverse events (healthy subjects): no treatment-related serious adverse events
- changes in C-reactive protein (healthy subjects; Study 1034-001): no significant changes
- tolerance (healthy subjects; single 400 mg dose with single 2-mg dose of midazolam syrup, Study 1034-005): well-tolerated
- tolerance (healthy subjects; single 150-mg doses with or without a high-fat breakfast, Study 1034-004): well-tolerated
- tolerance (healthy subjects; single doses up to 400 mg, Study 1034-001): well-tolerated
- laboratory abnormalities (healthy subjects; sporadic and transient): unrelated to CI-1034 administration
- intensity of adverse reactions (healthy subjects; transient): mild or moderate
- bioavailability [2]: ~10%
- IC50 (rat ETB receptors): 230 nM
- concentration at 24 h [3]: 160 ± 10 ng/mL
- Renal excretion of unchanged CI-1034 ([4]; Study 1034-001): < 3 % of the dose
- half-life ([4]; human, plasma, oral, 400-mg dose, read-out: additional elimination half-life (converted)): ~13 h
- half-life ([4]; human, plasma, single oral doses, Study 1034-001, read-out: elimination half-life (t½)): 2 to 4 h
- Tmax ([4]; human, plasma, single oral doses, Study 1034-001, read-out: time to maximal plasma concentrations (tmax)): 1 to 3 h
- Cmax and AUC(0-∞) with increasing dose ([4]; single oral doses): slightly more than proportional increases
